Experimental data published in patent US7582789B2, “Ibandronate polymorph” (Hoffmann-La Roche Inc., priority 2005, dated 2009).

How the values were obtained:
[1] = Solubility measurement of crystalline Ibandronate polymorphs in buffer solutions and water (titration); assay type: physicochemical; details: 25° C.
Protocol: The solubility of the individual crystalline Ibandronate polymorphs A and B was measured for various solutions. Approximately 10 g of the corresponding polymorph A or B were suspended in three different buffer solutions at pH 2, pH 4 (Titrisol-buffer, citrate/HCl), at pH 7 (methenamine buffer, HCl) or in water. The suspension was stirred for 24 hours at 25° C. and was kept additonally 24 hours without stirring at the same temperature. Solubility was calculated by titration according to the following method.
The residue was filtered, 2 ml of the filtrate taken, 5 ml of Titriplex III solution were added and diluted with water to 100 ml. 2 ml of this solution were added to approximately 0.1 ml of xylenol orange indicator and the pH was adjusted to 6.5 by adding small portions of methenamine buffer solution or 0.1 M hydrochloric acid. The solution is titrated immediately with Th-DCTA-xylenol orange complex until the color changes from yellow to reddish-violet. The endpoint is determined photometrically.

[2] = Relative thermodynamic stability of Ibandronate polymorphs; details: polymorph A compared with polymorph B

Row | Compound | solubility ([1]; pH 2 Titrisol-buffer (citrate/HCl), stirred 24 h + 24 h without stirring) | solubility ([1]; pH 4 Titrisol-buffer (citrate/HCl), stirred 24 h + 24 h without stirring) | solubility ([1]; pH 7 methenamine buffer/HCl, stirred 24 h + 24 h without stirring) | solubility ([1]; water, stirred 24 h + 24 h without stirring) | thermodynamic stability relative to the other polymorph [2] | solubility ([1]; pH 2 Titrisol-buffer (citrate/HCl), under at least partial conversion to polymorph A) | solubility ([1]; pH 4 Titrisol-buffer (citrate/HCl), under at least partial conversion to polymorph A) | solubility ([1]; pH 7 methenamine buffer/HCl, under at least partial conversion to polymorph A) | solubility ([1]; water, under at least partial conversion to polymorph A, listed as Ibandronate polymorph B, monosodium salt monohydrate) | solubility ([1]; water, under at least partial conversion to polymorph A, monosodium salt monohydrate)
1 | CCCCCN(C)CCC(O)(P(=O)([O-])O)P(=O)(O)O.O.[Na+] [Polymorph A, 3-(N-methyl-N-pentyl) amino-1-hydroxypropane-1,1-diphosphonic acid monosodium salt monohydrate] | 280 mg/mL | 276 mg/mL | 292 mg/mL | 278 mg/mL | thermodynamically more stable |  |  |  |  | 
2 | CCCCCN(C)CCC(O)(P(=O)([O-])O)P(=O)(O)O.O.[Na+] [Polymorph B, 3-(N-methyl-N-pentyl) amino-1-hydroxypropane-1,1-diphosphonic acid monosodium salt monohydrate] |  |  |  |  |  | 274 mg/mL | 278 mg/mL | 299 mg/mL | about 279 g/l | 279 mg/mL
